{"source": "patent US20090156530A1", "about": "“Norepinepherine Transporter Mutants and Uses Thereof” (priority 2007, published 2009)", "key": {"NET [1]": {"system": "NET", "test": "Whole cell patch clamp recording of NET currents in SCG neurons", "format": "cell-based, rat", "conditions": "200 μM CdCl2; 5 μM KN93 15 min; 2 μM STO609 20 min", "description": "Whole Cell Patch Clamp Recording of NET currents. Patch clamp experiments were performed using an amplifier Axopatch 200B with a low-pass filter set at 1 kHz. Quartz patch pipettes with 5-7 MΩ resistance were pulled by a programmable puller (model P-2000, Sutter Instruments Novato, Calif.) and filled with the internal solution containing (in mM): 120 KCl, 2 MgCl2, 10 HEPES, 2 MgATP, 30 dextrose and adjusted to pH 7.35. SCG neurons were washed twice with a control solution containing mMs 130 NaCl, 5 CaCl2, 0.5 MgCl2, 1.3 KCl, 10 HEPES, 34 dextrose adjusted to pH 7.35 before experiments. NET-mediated current was defined as the current recorded in control condition minus the current recorded in presence of 5 μM desipramine. Neurons were clamp at −50 mV and the NET-mediated current was recorded by stepping the membrane voltage to −120 mV for 500 ms before and after a 2 sec depolarizing step at −10 mV. NET-mediated current was studied in the control condition, in presence of 200 μM CdCl2, after 15 min preincubation with 5 μM KN93 and after 20 min preincubation with 2 μM STO609."}, "NET [2]": {"target": "T1, NET (Mus musculus, UniProt O55192)", "T1 construct": "The pellets were collected as synaptosomes; from tissue; host or cells: mouse (C57/B16) brain cortex synaptosomes", "T1 sequence (O55192 whole entry)": "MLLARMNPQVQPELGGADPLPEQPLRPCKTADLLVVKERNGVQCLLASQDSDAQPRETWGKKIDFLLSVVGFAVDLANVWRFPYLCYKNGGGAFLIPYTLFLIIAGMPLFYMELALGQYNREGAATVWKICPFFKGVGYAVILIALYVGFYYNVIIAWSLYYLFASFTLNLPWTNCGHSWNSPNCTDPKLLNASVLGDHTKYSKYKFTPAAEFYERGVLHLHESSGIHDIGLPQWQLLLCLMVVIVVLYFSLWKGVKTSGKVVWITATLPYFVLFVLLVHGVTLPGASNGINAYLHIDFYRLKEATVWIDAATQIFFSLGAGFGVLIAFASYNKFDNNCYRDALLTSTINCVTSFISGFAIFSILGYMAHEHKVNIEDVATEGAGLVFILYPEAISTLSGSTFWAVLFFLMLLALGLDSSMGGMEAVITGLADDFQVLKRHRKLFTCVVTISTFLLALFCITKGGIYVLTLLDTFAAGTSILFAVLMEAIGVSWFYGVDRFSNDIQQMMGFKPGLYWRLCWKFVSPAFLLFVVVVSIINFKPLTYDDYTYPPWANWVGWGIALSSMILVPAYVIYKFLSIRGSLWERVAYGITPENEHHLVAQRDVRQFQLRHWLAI", "test": "NE transport assay in cortical synaptosomes", "format": "biochemical", "description": "Cell culture, transfection of cDNA or siRNA, generation of stable cell lines, preparation of cortical synaptosomes. CHO cells were maintained in DMEM/10% fetal bovine serum (FBS), 2 mM L-glutamine (L-Glu), 100 IU/ml penicillin, 100 μg/ml streptomycin (pen/strep). […]. The stable clones were selected using hygromycin B ([…], Invitrogen) and maintained in Ham's F12/10% FBS/L-Glu/pen/strep supplemented with Zeocin […] (Invitrogen). CAD-NET cells were generated by stably transfecting HA-NET in pcDNA3 into CAD cells and maintained in DMEM/F12/8% FBS/L-Glu/pen/strep/200 μg/ml of G418 (Mediatech). TransIT-LT1 transfection reagent (Mirus) was used for all transfections. All cells were plated on poly-D-lysine coated plates and incubated for 48 hrs for cDNA transfection and for 48 to 72 hrs for siRNA transfection prior to assays. For synaptosomal preparations, brain cortex was dissected from mice (C57/B16, Harlan) and homogenized in 10 mM HEPES, 0.32 M Sucrose, pH 7.4 using a Teflon pestle/homogenizer. Homogenates were centrifuged at 1,000 g, 5 min at 4° C., and then the supernatant were re-centrifuged at 16,000 g, 20 min at 4° C. The pellets were collected as synaptosomes.\nAssay buffers, transport assays, Ca^2+ imaging. NE transport assays on synaptosomes (50-100 μg/assay reaction) or cells were described previously (Sung et al., 2003). Uptake assay was carried out in KRH/Ca^2+ (mM: 120 NaCl, 4.7 KCl, 1.2 KH2PO4, 10 HEPES, 1.2 MgSO4, 2.2 CaCl2, pH 7.4,) with 0.1 mM pargylnine, ascorbic acid, tropolone, and 1.8 mg/ml glucose, otherwise mentioned. KRH/EGTA is KRH with 0.2 mM EGTA and without CaCl2. When KRH/EGTA was used, KRH/Ca^2+ for the parallel experiment contained 0.2 mM EGTA as well. Uptake assays were initiated by addition of [^3H]-NE (1-[7,8-^3H] noradrenaline, Amersham Pharmacia) at 50 nM final concentration. For kinetics assays, 50, 100, 200 nM of [^3H]-NE, 400, 600, 800, 1,000, 1,200, 1,500 nM of 20% [^3H]-NE and 80% of unlabeled NE (Sigma) were used. Nonspecific uptake was defined using 1-10 μM desipramine. All assays were carried out at 37° C. for 10 min in triplicates. Ca^2+ imaging was performed as described previously (Apparsundaram et al., 2001). CHO cells were pre-loaded with […] fura-2/acetoxymethyl ester (fura-2/AM, Molecular Probe) and superfused with KRH/EGTA and 1 μM thapsigargin for 10 min. The medium was replaced with KRH/Ca^2+ or KRH/EGTA before measurement of intracellular Ca^2+. All experiments derive from at least 3 independent data and mean values were evaluated using a two-tailed Student's t-test or a one-way ANOVA, followed by Tukey's test, with p<0.05 considered significant (*). Data were analyzed using GraphPad Prism 4.\nProtocols for restoration and depletion of Ca^2+ For uptake assay, synaptosomes were pre-incubated with drugs in KRH/Ca^2+. For increase of Ca^2+, synaptosomes were re-suspended in KRH/EGTA, transferred to fresh KRH/EGTA (EGTA to EGTA) or KRH/Ca^2+ (EGTA to Ca^2+), and incubated at 37° C. for 5 min prior to the addition of radiolabeled NE. NE uptake activity of synaptosomes in KRH/Ca^2+ was compared to the activity of synaptosomes in KRH/EGTA. For reduction of Ca^2+, synaptosomes were first resuspended in KRH/Ca^2+, divided into 2 aliquots, replaced with fresh KRH/Ca^2+ (Ca^2+ to Ca^2+) or KRH/EGTA (Ca^2+ to EGTA), and incubated at 37° C. for 5 min prior to the addition of radiolabeled NE. NE uptake activity of synaptosomes in KRH/EGTA was compared to the activity of synaptosomes in KRH/Ca^2+. Control cells were treated the same way except use of complete media with vehicle. Restoration of Ca^2+ for surface biotinylation was carried out by incubating cells in KRH/EGTA with 0.1-1 μM thapsigargin for 10 min at 37° C. to deplete Ca^2+. Cells were washed once with KRH/EGTA, replaced with KRH/EGTA or KRH/Ca^2+, and incubated for 1 min at RT to 5 min at 37° C. prior to biotinylation. […]"}, "NET [3]": {"system": "NET", "test": "NE transport assay in CAD-NET cells", "format": "cell-based, human", "conditions": "KRH/Ca^2+", "method": "Uptake assay was carried out in KRH/Ca^2+ (mM: 120 NaCl, 4.7 KCl, 1.2 KH2PO4, 10 HEPES, 1.2 MgSO4, 2.2 CaCl2, pH 7.4,) with 0.1 mM pargylnine, ascorbic acid, tropolone, and 1.8 mg/ml glucose, otherwise mentioned. KRH/EGTA is KRH with 0.2 mM EGTA and without CaCl2. When KRH/EGTA was used, KRH/Ca^2+ for the parallel experiment contained 0.2 mM EGTA as well. […] Nonspecific uptake was defined using 1-10 μM desipramine. All assays were carried out at 37° C. for 10 min in triplicates. […] All experiments derive from at least 3 independent data and mean values were evaluated using a two-tailed Student's t-test or a one-way ANOVA, followed by Tukey's test, with p<0.05 considered significant (*)."}, "human NET": {"system": "human NET", "test": "Surface biotinylation of HA-NET in transiently transfected CHO cells", "format": "cell-based", "conditions": "CHO cells, 5 μM KN93 30 min or 5 μM STO-609 1 hour"}, "NET [4]": {"system": "NET", "test": "Surface NET immunolabeling in cultured SCG neurons on high K+ depolarization", "format": "cell-based, rat", "conditions": "SCG cultures, high potassium buffer, preincubated with drug", "description": "Primary neuronal culture, immunohistochemistry, electrophysiology. […] Surface-labeling of NET has been preformed by staining non-fixed SCG culture with anti-NET sera 43408 as described in (Savchenko et al., 2003). For detection of plasma membrane changes+/−depolarization, SCG neurons were preincubated with normal medium (2.5 mM K+) or in 40 mM or 90 mM K^+ for 15 min followed by incubation with NET 43408 antibody for 1 hr at RT in the absence of detergent. Cells were washed and fixed with 3% p-formaldehyde for 10 min prior to visualization of NET labeling using Cy3-conjugated anti-rabbit antibodies. Specimens from multiple fields were examined with a Zeiss LSM 510 Meta imaging system equipped with internal He/Ne and external Ar/Kr lasers. Images were collected were averaged across multiple fields of replicate experiments (n=3), pseudocolored for presentation, and pixel intensity calculated over processes immunopositive by double-staining for tubulin immunoreactivity in Metamorph."}}, "data": [{"substance": "KN93", "values": [{"measurement": "Effect on increase in NET current triggered by prior depolarization", "setting": "NET [1]", "value": "prevented the stimulation-elicited increase in NET currents"}, {"measurement": "NE transport in KRH/Ca^2+ after drug treatment", "setting": "NET [2]; 0.1-1 μM BIM, 5 μM KN93 or 10 μM W7, 15 min at 37° C.", "value": "inhibited NE transport"}, {"measurement": "NE transport after addition of Ca^2+, % of control", "setting": "NET [2]; drug pre-treated synaptosomes, KRH/EGTA to KRH/Ca^2+ (2.2 mM final), 5 μM KN93", "value": "140.5+/−11.2%"}, {"measurement": "NE uptake when switched to KRH/EGTA, % of NE uptake in KRH/Ca^2+", "setting": "NET [2]; drug pre-treated synaptosomes, 5 μM KN93", "value": "67.5+/−7.2%"}, {"measurement": "Effect on reduction in NET activity on switch from KRH/Ca^2+ to KRH/EGTA", "setting": "NET [2]; pre-incubation with drug", "value": "blunted"}, {"measurement": "Effect on elevation in NET activity triggered by addition of Ca^2+", "setting": "NET [2]; pre-incubation with drug, KRH/EGTA to KRH/Ca^2+", "value": "significantly blunted the elevation in NET activity"}, {"measurement": "Basal NE transport", "setting": "NET [3]", "value": "able to suppress NE transport"}, {"measurement": "Effect on Ca^2+-depletion elicited reduction of NET surface density", "setting": "human NET; Ca^2+ depletion", "value": "blocked"}, {"measurement": "Effect on Ca^2+-stimulated elevation of NET surface density", "setting": "human NET; KRH/EGTA to KRH/Ca^2+", "value": "blocked"}, {"measurement": "Depolarization triggered increase of surface NET density", "setting": "NET [4]", "value": "failed to increase surface NET density"}]}]}
